From the supplement of paper PMC10307832

Key:
Test in all cases: relative viability (nuclei count vs DMSO), 5 days (fraction); higher = more cells survive
MLN4924 + Alpelisib = compound: NS(=O)(=O)OC[C@@H]1C[C@@H](n2ccc3c(N[C@H]4CCc5ccccc54)ncnc32)C[C@@H]1O [MLN4924] + Cc1nc(NC(=O)N2CCC[C@H]2C(N)=O)sc1-c1ccnc(C(C)(C)C(F)(F)F)c1 [Alpelisib] (partner 2 µM)
Method in brief: (§1)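 After 5 days of treatment, lung cancer cells in 1536-well plates were fixed and stained in a single step (final 0.05% Triton X-100, 1% formaldehyde, 1 ug/ml Hoechst) and their nuclei counted on 4× images. Treatment had been applied by pin tool the day after seeding as one drug alone or as a fixed anchor-drug dose with five library-drug doses (not always all listed) in √10 steps. Relative viability is the nuclei count of treated wells divided by that of vehicle wells, and values are medians of duplicate plates.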

MLN4924 + Crizotinib = compound: NS(=O)(=O)OC[C@@H]1C[C@@H](n2ccc3c(N[C@H]4CCc5ccccc54)ncnc32)C[C@@H]1O [MLN4924] + C[C@@H](Oc1cc(-c2cnn(C3CCNCC3)c2)cnc1N)c1c(Cl)ccc(F)c1Cl [Crizotinib] (partner 1 µM)
Method in brief: as §1

MLN4924 + OSI-027 = compound: NS(=O)(=O)OC[C@@H]1C[C@@H](n2ccc3c(N[C@H]4CCc5ccccc54)ncnc32)C[C@@H]1O [MLN4924] + COc1cccc2cc(-c3nc([C@H]4CC[C@H](C(=O)O)CC4)n4ncnc(N)c34)[nH]c12 [OSI-027] (partner 0.5 µM)
Method in brief: as §1

MLN4924 + Foretinib = compound: NS(=O)(=O)OC[C@@H]1C[C@@H](n2ccc3c(N[C@H]4CCc5ccccc54)ncnc32)C[C@@H]1O [MLN4924] + COc1cc2c(Oc3ccc(NC(=O)C4(C(=O)Nc5ccc(F)cc5)CC4)cc3F)ccnc2cc1OCCCN1CCOCC1 [Foretinib] (partner 0.25 µM)
Method in brief: as §1

Cell Line | relative viability (MLN4924 + Alpelisib; first compound 0.04 µM) | relative viability (MLN4924 + Alpelisib; first compound 0.1265 µM) | relative viability (MLN4924 + Alpelisib; first compound 0.4 µM) | relative viability (MLN4924 + Alpelisib; first compound 1.265 µM) | relative viability (MLN4924 + Alpelisib; first compound 4 µM) | relative viability (MLN4924 + Crizotinib; first compound 0.04 µM) | relative viability (MLN4924 + Crizotinib; first compound 0.1265 µM) | relative viability (MLN4924 + Crizotinib; first compound 0.4 µM) | relative viability (MLN4924 + Crizotinib; first compound 1.265 µM) | relative viability (MLN4924 + Crizotinib; first compound 4 µM) | relative viability (MLN4924 + OSI-027; first compound 0.04 µM) | relative viability (MLN4924 + OSI-027; first compound 0.1265 µM) | relative viability (MLN4924 + OSI-027; first compound 0.4 µM) | relative viability (MLN4924 + OSI-027; first compound 1.265 µM) | relative viability (MLN4924 + OSI-027; first compound 4 µM) | relative viability (MLN4924 + Foretinib; first compound 0.04 µM) | relative viability (MLN4924 + Foretinib; first compound 0.1265 µM) | relative viability (MLN4924 + Foretinib; first compound 0.4 µM) | relative viability (MLN4924 + Foretinib; first compound 1.265 µM) | relative viability (MLN4924 + Foretinib; first compound 4 µM)
201T | 1.24 | 1.11 | 1.17 | 0.344 | 0.392 | 1.05 | 0.994 | 0.984 | 0.401 | 0.391 | 0.824 | 0.857 | 0.46 | 0.139 | 0.115 | 1.23 | 0.842 | 0.561 | 0.194 | 0.175
A549 | 0.657 | 0.748 | 0.61 | 0.05 | 0.05 | 0.772 | 0.634 | 0.416 | 0.0489 | 0.0552 |  |  |  |  |  | 0.972 | 0.8 | 0.508 | 0.0828 | 0.0301
A-427 | 0.728 | 0.334 | 0.28 | 0.183 | 0.2 | 0.4 | 0.239 | 0.243 | 0.149 | 0.182 | 0.356 | 0.239 | 0.214 | 0.173 | 0.171 | 0.742 | 0.236 | 0.264 | 0.185 | 0.178
ABC-1 | 1.18 | 0.95 | 0.352 | 0.264 | 0.262 | 0.901 | 0.29 | 0.132 | 0.0913 | 0.223 | 0.7 | 0.511 | 0.323 | 0.196 | 0.248 | 1.07 | 1.07 | 0.301 | 0.189 | 0.248
BEN | 0.868 | 0.458 | 0.372 | 0.151 | 0.147 | 0.73 | 0.38 | 0.272 | 0.172 | 0.17 | 0.318 | 0.308 | 0.228 | 0.218 | 0.195 | 0.491 | 0.307 | 0.219 | 0.169 | 0.129
CAL-12T | 1.09 | 1.18 | 0.39 | 0.529 | 0.191 | 0.638 | 0.665 | 0.284 | 0.248 | 0.134 | 0.619 | 0.593 | 0.283 | 0.184 | 0.113 | 1.01 | 1.03 | 0.463 | 0.422 | 0.181
COR-L23 | 0.722 | 0.689 | 0.561 | 0.159 | 0.116 | 0.588 | 0.567 | 0.431 | 0.136 | 0.0871 | 0.718 | 0.602 | 0.555 | 0.199 | 0.119 | 0.985 | 0.844 | 0.644 | 0.299 | 0.141
COR-L 105 | 0.836 | 0.702 | 0.413 | 0.257 | 0.31 | 0.802 | 0.472 | 0.344 | 0.194 | 0.222 | 0.721 | 0.617 | 0.511 | 0.238 | 0.311 | 0.697 | 0.654 | 0.396 | 0.292 | 0.258
Calu-6 | 1.09 | 1.07 | 0.388 | 0.14 | 0.148 | 0.677 | 0.426 | 0.197 | 0.0922 | 0.0977 |  |  |  |  |  | 0.699 | 0.322 | 0.209 | 0.0838 | 0.0789
ChaGo-K-1 |  |  |  |  |  | 0.908 | 0.595 | 0.451 | 0.325 | 0.324 | 0.461 | 0.35 | 0.272 | 0.181 | 0.176 | 0.785 | 0.503 | 0.336 | 0.244 | 0.22
EBC-1 | 0.78 | 0.768 | 0.276 | 0.132 | 0.151 | 0.167 | 0.189 | 0.215 | 0.149 | 0.156 |  |  |  |  |  | 0.109 | 0.15 | 0.147 | 0.082 | 0.0997
EKVX | 0.926 | 0.748 | 0.519 | 0.164 | 0.144 | 0.865 | 0.654 | 0.461 | 0.226 | 0.133 | 0.71 | 0.712 | 0.622 | 0.214 | 0.175 | 0.718 | 0.748 | 0.59 | 0.135 | 0.155
EMC-BAC-2 | 0.806 | 0.326 | 0.194 | 0.15 | 0.14 | 0.601 | 0.283 | 0.242 | 0.164 | 0.167 | 0.383 | 0.36 | 0.197 | 0.194 | 0.243 | 0.959 | 0.593 | 0.248 | 0.224 | 0.282
EPLC-272H | 1.05 | 0.957 | 0.131 | 0.136 | 0.195 | 0.812 | 0.603 | 0.0795 | 0.136 | 0.201 | 0.291 | 0.265 | 0.0696 | 0.13 | 0.136 | 0.582 | 0.216 | 0.0552 | 0.0953 | 0.109
